Measured values published in ChEMBL document CHEMBL4190346, “Structure-based design, synthesis, and biological evaluation of withaferin A-analogues as potent apoptotic inducers” (Eur J Med Chem, 2017).

Experiments:
HeLa [1] = test: Cytotoxicity against human HeLa cells assessed as reduction in cell viability using compound addition to cell culture cells in log phase of growth and incubated for 48 hrs by MTT assay; assay type: functional, cell-based
Vero [2] = test: Cytotoxicity against African green monkey Vero cells assessed as reduction in cell viability using compound addition to cell culture cells in lag phase of growth and incubated for 48 hrs by MTT assay; assay type: cell-based, Chlorocebus sabaeus
Vero [3] = test: Cytotoxicity against African green monkey Vero cells assessed as reduction in cell viability using compound addition to cell culture cells in log phase of growth and incubated for 48 hrs by MTT assay; assay type: cell-based, Chlorocebus sabaeus
HeLa [4] = test: Cytotoxicity against human HeLa cells assessed as reduction in cell viability using compound addition to cell culture cells in lag phase of growth and incubated for 48 hrs by MTT assay; assay type: functional, cell-based
MCF7 [5] = test: Cytotoxicity against human MCF7 cells assessed as reduction in cell viability using compound addition to cell culture cells in log phase of growth and incubated for 48 hrs by MTT assay; assay type: functional, cell-based
A549 [6] = test: Cytotoxicity against human A549 cells assessed as reduction in cell viability using compound addition to cell culture cells in lag phase of growth and incubated for 48 hrs by MTT assay; assay type: functional, cell-based
MCF7 [7] = test: Cytotoxicity against human MCF7 cells assessed as reduction in cell viability using compound addition to cell culture cells in lag phase of growth and incubated for 48 hrs by MTT assay; assay type: functional, cell-based
A549 [8] = test: Cytotoxicity against human A549 cells assessed as reduction in cell viability using compound addition to cell culture cells in log phase of growth and incubated for 48 hrs by MTT assay; assay type: functional, cell-based
[9] = Homo sapiens, HeLa, 48 h, read-out: IC50
[10] = Chlorocebus sabaeus, Vero, 48 h, read-out: IC50
[11] = Homo sapiens, MCF7, 48 h, read-out: IC50
[12] = Homo sapiens, A549, 48 h, read-out: IC50

Row | Compound | IC50 (HeLa [1]; [9]) | IC50 (Vero [2]; [10]) | IC50 (Vero [3]; [10]) | IC50 (HeLa [4]; [9]) | IC50 (MCF7 [5]; [11]) | IC50 (A549 [6]; [12]) | IC50 (MCF7 [7]; [11]) | IC50 (A549 [8]; [12]) | IC50 (HeLa [1]; hela) | IC50 (Vero [2]; vero) | IC50 (Vero [3]; vero) | IC50 (HeLa [4]; hela) | IC50 (MCF7 [5]; mcf7) | IC50 (A549 [6]; a549) | IC50 (MCF7 [7]; mcf7) | IC50 (A549 [8]; a549)
1 | COC(=O)CCC(=O)OCC1=C(C)C[C@H]([C@@H](C)[C@H]2CC[C@H]3[C@@H]4C[C@H]5O[C@]56[C@@H](O)C=CC(=O)[C@]6(C)[C@H]4CC[C@]23C)OC1=O | 2.9 µM | 0.6 µM | 0.6 µM | 0.9 µM | 1.6 µM | 2.3 µM | 0.4 µM | 3.7 µM |  |  |  |  |  |  |  | 
2 | CC1=C(COC(=O)c2ccoc2)C(=O)O[C@@H]([C@@H](C)[C@H]2CC[C@H]3[C@@H]4C[C@H](Cl)[C@]5(O)[C@@H](O)C=CC(=O)[C@]5(C)[C@H]4CC[C@]23C)C1 | > 40 µM | 30.6 µM | 31.2 µM | > 40 µM | 28.6 µM | > 40 µM | 33.5 µM | > 40 µM |  |  |  |  |  |  |  | 
3 | CC(=O)OCC1=C(C)C[C@H]([C@@H](C)[C@H]2CC[C@H]3[C@@H]4C[C@H](Cl)[C@]5(O)[C@@H](O)C=CC(=O)[C@]5(C)[C@H]4CC[C@]23C)OC1=O | 14.8 µM | 4.8 µM | 6.5 µM | 16.1 µM | 7.2 µM | 10.8 µM | 10.9 µM | 17.1 µM |  |  |  |  |  |  |  | 
4 | CC1=C(COC(=O)c2cccc3ccccc23)C(=O)O[C@@H]([C@@H](C)[C@H]2CC[C@H]3[C@@H]4C[C@H]5O[C@]56[C@@H](OC(=O)c5cccc7ccccc57)C=CC(=O)[C@]6(C)[C@H]4CC[C@]23C)C1 | > 40 µM | > 40 µM | > 40 µM | > 40 µM | > 40 µM | > 40 µM | > 40 µM | > 40 µM |  |  |  |  |  |  |  | 
5 | CC1=C(CO)C(=O)O[C@@H]([C@@H](C)[C@H]2CC[C@H]3[C@@H]4C[C@H]5O[C@]56[C@@H](O)[C@@H](O)CC(=O)[C@]6(C)[C@H]4CC[C@]23C)C1 [VISCOSALACTONE B] | > 40 µM | > 40 µM | > 40 µM | > 40 µM | > 40 µM | > 40 µM | > 40 µM | > 40 µM |  |  |  |  |  |  |  | 
6 | COc1ccc(C(=O)OCC2=C(C)C[C@H]([C@@H](C)[C@H]3CC[C@H]4[C@@H]5C[C@H](Cl)[C@]6(O)[C@@H](O)C=CC(=O)[C@]6(C)[C@H]5CC[C@]34C)OC2=O)cc1 | 37.7 µM | 3.8 µM | 6.8 µM | 26.4 µM | 6.8 µM | > 40 µM | 3 µM | > 40 µM |  |  |  |  |  |  |  | 
7 | CCC(=O)OCC1=C(C)C[C@H]([C@@H](C)[C@H]2CC[C@H]3[C@@H]4C[C@H]5O[C@]56C(=O)C=CC(=O)[C@]6(C)[C@H]4CC[C@]23C)OC1=O | 6.8 µM | 3.8 µM | 1.1 µM | 4.7 µM | 2.3 µM | 4.2 µM | 6 µM | 8.3 µM |  |  |  |  |  |  |  | 
8 | COC(=O)CCC(=O)OCC1=C(C)C[C@H]([C@@H](C)[C@H]2CC[C@H]3[C@@H]4C[C@H]5O[C@]56[C@@H](OC(=O)CCC(=O)OC)C=CC(=O)[C@]6(C)[C@H]4CC[C@]23C)OC1=O | 2.9 µM | 0.7 µM | 0.6 µM | 1.8 µM | 1.5 µM | 2.1 µM | 1.4 µM | 3.4 µM |  |  |  |  |  |  |  | 
9 | CO[C@H]1CC(=O)[C@]2(C)[C@H]3CC[C@]4(C)[C@@H]([C@H](C)[C@H]5CC(C)=C(CO)C(=O)O5)CC[C@H]4[C@@H]3C[C@H]3O[C@]32[C@H]1O | > 40 µM | > 40 µM | > 40 µM | > 40 µM | > 40 µM | > 40 µM | > 40 µM | > 40 µM |  |  |  |  |  |  |  | 
10 | C=CCOC(=O)/C(CO)=C(C)\C=C\[C@@H](C)[C@H]1CC[C@H]2[C@@H]3C[C@H]4O[C@]45[C@@H](O)C=CC(=O)[C@]5(C)[C@H]3CC[C@]12C | 7.1 µM | 2.2 µM | 4.7 µM | 4.2 µM | 2.4 µM | 7.9 µM | 2.4 µM | 8.3 µM |  |  |  |  |  |  |  | 
11 | CCCCN[C@H]1CC(=O)[C@]2(C)[C@H]3CC[C@]4(C)[C@@H]([C@H](C)[C@H]5CC(C)=C(CO)C(=O)O5)CC[C@H]4[C@@H]3C[C@H]3O[C@]32[C@H]1O | 8.4 µM | 13.6 µM | 20.6 µM | 9.6 µM | 6.9 µM | 21.8 µM | 7.6 µM | 9.6 µM |  |  |  |  |  |  |  | 
12 | CO[C@H]1C=CC(=O)[C@]2(C)[C@H]3CC[C@]4(C)[C@@H]([C@H](C)[C@H]5CC(C)=C(CO)C(=O)O5)CC[C@H]4[C@@H]3C[C@H]3O[C@]132 | 3.8 µM | 0.9 µM | 1.5 µM | 2.1 µM | 1.7 µM | 4 µM | 1.1 µM | 4.4 µM |  |  |  |  |  |  |  | 
13 | COCC1=C(C)C[C@H]([C@@H](C)[C@H]2CC[C@H]3[C@@H]4C[C@H]5O[C@]56[C@@H](O)C=CC(=O)[C@]6(C)[C@H]4CC[C@]23C)OC1=O | 3.3 µM | 0.9 µM | 1.5 µM | 3.2 µM | 1.9 µM | 4.2 µM | 1.4 µM | 5.3 µM |  |  |  |  |  |  |  | 
14 | CC1=C(CO[Si](C)(C)C(C)(C)C)C(=O)O[C@@H]([C@@H](C)[C@H]2CC[C@H]3[C@@H]4C[C@H](O)[C@]5(O)[C@@H](O)C=CC(=O)[C@]5(C)[C@H]4CC[C@]23C)C1 | 12 µM | 7.9 µM | 7.6 µM | 14.8 µM | 5.6 µM | 14.2 µM | 7.5 µM | 10 µM |  |  |  |  |  |  |  | 
15 | CC1=C(CO)C(=O)O[C@@H]([C@@H](C)[C@H]2CC[C@H]3[C@@H]4C[C@H]5O[C@]56[C@@H](O)[C@H]5O[C@H]5C(=O)[C@]6(C)[C@H]4CC[C@]23C)C1 | > 40 µM | > 40 µM | > 40 µM | > 40 µM | > 40 µM | > 40 µM | > 40 µM | > 40 µM |  |  |  |  |  |  |  | 
16 | CCCCCCCCCCCC(=O)OCC1=C(C)C[C@H]([C@@H](C)[C@H]2CC[C@H]3[C@@H]4C[C@H]5O[C@]56[C@@H](OC(=O)CCCCCCCCCCC)C=CC(=O)[C@]6(C)[C@H]4CC[C@]23C)OC1=O |  |  |  |  |  |  |  |  | Nd(Insoluble) | Nd(Insoluble) | Nd(Insoluble) | Nd(Insoluble) | Nd(Insoluble) | Nd(Insoluble) | Nd(Insoluble) | Nd(Insoluble)
17 | CC(=O)OCC1=C(C)C[C@H]([C@@H](C)[C@H]2CC[C@H]3[C@@H]4C[C@H]5O[C@]56C(=O)C=CC(=O)[C@]6(C)[C@H]4CC[C@]23C)OC1=O | 17.5 µM | 3.9 µM | 6.4 µM | 16.3 µM | 6.8 µM | 13.2 µM | 6.4 µM | 16.2 µM |  |  |  |  |  |  |  | 
